The source of these data is PMC9851200, “Multiparameter phenotypic screening for endogenous TFEB and TFE3 translocation identifies novel chemical series modulating lysosome function” (Autophagy, 2022).

Common to all, as to assay type: binding
Experiment [1] has as its target T1, kinases (KINOMEscan panel) (Homo sapiens, UniProt P57058).
T1 sequence (P57058 1-714): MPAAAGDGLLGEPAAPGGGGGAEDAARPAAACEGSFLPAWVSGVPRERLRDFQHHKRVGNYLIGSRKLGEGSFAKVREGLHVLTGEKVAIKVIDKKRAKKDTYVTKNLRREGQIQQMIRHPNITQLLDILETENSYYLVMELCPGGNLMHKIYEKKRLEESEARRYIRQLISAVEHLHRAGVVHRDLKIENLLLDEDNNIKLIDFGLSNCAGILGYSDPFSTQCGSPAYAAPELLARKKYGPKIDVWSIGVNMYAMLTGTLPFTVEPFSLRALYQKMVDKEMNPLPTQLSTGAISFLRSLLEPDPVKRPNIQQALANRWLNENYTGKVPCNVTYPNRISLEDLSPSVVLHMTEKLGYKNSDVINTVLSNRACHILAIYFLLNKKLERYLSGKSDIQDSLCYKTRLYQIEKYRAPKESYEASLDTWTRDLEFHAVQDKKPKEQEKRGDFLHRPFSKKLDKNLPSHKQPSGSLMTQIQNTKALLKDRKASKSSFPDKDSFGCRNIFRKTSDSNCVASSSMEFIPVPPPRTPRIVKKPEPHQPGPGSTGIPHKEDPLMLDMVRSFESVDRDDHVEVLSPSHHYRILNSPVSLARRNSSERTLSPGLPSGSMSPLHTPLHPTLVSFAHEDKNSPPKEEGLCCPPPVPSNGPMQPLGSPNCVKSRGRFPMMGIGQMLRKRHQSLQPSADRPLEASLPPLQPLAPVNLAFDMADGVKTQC
The following applies: kinase HUNK; NEW KINOMEscan.

In experiment [2] the target is kinases (KINOMEscan panel) (Homo sapiens, UniProt Q9BX84). To be noted: TRPM6; NEW KINOMEscan.
kinases (KINOMEscan panel) (Homo sapiens, UniProt Q9BX84), sequence (Q9BX84 whole entry): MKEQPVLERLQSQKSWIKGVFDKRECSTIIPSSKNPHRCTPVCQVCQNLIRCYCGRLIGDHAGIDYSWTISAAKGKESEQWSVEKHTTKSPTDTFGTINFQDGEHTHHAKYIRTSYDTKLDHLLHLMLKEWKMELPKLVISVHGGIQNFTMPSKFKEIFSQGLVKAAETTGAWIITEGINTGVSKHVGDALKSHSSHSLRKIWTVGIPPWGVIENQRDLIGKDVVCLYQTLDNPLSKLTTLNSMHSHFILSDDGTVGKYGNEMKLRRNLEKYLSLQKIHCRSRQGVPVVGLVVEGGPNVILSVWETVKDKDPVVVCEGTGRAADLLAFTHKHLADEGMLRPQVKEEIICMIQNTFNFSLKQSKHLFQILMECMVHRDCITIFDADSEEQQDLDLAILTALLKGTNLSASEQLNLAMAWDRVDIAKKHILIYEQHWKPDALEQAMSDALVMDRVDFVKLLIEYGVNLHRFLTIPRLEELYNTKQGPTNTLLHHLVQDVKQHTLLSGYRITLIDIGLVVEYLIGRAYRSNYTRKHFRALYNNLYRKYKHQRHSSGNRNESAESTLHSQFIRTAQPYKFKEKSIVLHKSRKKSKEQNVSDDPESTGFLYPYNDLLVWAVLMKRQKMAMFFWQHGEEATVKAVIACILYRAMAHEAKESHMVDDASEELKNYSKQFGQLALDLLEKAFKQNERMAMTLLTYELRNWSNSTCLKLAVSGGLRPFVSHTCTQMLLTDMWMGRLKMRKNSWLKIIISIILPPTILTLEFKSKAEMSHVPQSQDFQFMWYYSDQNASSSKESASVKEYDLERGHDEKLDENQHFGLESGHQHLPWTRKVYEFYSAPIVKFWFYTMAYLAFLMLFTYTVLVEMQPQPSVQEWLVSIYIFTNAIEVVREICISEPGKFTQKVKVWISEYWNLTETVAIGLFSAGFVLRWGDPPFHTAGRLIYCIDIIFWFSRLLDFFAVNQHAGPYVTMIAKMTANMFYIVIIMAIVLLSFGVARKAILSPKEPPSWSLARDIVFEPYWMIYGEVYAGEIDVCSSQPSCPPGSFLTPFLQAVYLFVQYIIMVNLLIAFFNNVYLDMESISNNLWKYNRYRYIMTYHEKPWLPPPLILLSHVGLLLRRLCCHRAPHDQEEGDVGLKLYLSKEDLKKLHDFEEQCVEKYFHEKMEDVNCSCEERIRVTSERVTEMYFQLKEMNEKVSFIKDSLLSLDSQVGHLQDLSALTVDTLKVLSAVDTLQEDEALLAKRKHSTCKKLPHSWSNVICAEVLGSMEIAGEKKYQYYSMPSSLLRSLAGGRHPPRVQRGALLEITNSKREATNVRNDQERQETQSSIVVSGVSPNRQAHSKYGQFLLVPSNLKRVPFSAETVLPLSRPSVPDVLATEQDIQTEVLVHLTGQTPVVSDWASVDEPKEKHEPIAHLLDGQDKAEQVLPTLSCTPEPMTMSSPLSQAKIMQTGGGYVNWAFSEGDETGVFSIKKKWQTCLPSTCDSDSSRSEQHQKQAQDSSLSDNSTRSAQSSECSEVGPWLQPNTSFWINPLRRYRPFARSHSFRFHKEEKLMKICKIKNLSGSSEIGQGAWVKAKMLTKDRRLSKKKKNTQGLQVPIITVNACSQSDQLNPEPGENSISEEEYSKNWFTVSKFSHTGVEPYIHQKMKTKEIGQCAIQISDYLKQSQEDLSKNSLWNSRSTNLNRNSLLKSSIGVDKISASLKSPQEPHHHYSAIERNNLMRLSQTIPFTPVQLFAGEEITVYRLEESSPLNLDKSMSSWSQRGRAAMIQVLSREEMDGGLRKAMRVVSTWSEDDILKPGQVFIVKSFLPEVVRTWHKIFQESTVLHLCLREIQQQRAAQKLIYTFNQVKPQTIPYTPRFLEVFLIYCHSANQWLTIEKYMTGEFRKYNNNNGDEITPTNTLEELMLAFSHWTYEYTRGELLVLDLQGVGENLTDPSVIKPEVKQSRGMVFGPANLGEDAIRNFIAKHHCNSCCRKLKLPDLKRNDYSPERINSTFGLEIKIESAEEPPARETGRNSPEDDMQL
Experiment [3] has as its target T2, kinases (KINOMEscan panel) (Homo sapiens, UniProt Q7L7X3).
T2 sequence (Q7L7X3 1-1001): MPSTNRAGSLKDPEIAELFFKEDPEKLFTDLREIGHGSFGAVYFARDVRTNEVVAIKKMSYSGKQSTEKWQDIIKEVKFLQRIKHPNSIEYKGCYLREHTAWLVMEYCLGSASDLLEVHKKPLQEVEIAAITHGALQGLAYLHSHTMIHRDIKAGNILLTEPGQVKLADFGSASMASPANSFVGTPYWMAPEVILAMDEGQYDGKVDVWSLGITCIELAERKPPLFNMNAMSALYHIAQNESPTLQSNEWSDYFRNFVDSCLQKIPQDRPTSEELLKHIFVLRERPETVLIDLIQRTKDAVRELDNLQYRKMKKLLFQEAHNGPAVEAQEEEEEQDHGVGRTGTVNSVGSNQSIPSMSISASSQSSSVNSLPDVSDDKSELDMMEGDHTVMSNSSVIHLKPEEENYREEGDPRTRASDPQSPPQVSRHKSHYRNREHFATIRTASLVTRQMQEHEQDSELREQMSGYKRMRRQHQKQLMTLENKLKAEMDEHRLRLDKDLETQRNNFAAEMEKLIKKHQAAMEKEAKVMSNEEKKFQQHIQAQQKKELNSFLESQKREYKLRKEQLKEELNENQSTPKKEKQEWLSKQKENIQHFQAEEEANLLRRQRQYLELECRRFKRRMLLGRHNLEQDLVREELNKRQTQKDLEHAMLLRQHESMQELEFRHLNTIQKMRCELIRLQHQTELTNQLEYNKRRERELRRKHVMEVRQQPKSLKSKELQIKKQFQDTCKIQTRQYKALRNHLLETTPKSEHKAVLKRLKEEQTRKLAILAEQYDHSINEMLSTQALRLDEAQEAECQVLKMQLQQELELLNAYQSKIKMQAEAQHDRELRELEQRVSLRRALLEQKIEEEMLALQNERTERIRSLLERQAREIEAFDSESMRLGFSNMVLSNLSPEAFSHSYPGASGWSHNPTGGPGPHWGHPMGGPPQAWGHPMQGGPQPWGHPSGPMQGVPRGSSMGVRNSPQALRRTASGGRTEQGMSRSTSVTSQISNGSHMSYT
The following applies: kinase TAOK1; NEW KINOMEscan.

The target of experiment [4] is T3, kinases (KINOMEscan panel) (Homo sapiens, UniProt P20794).
T3 sequence (P20794 1-623): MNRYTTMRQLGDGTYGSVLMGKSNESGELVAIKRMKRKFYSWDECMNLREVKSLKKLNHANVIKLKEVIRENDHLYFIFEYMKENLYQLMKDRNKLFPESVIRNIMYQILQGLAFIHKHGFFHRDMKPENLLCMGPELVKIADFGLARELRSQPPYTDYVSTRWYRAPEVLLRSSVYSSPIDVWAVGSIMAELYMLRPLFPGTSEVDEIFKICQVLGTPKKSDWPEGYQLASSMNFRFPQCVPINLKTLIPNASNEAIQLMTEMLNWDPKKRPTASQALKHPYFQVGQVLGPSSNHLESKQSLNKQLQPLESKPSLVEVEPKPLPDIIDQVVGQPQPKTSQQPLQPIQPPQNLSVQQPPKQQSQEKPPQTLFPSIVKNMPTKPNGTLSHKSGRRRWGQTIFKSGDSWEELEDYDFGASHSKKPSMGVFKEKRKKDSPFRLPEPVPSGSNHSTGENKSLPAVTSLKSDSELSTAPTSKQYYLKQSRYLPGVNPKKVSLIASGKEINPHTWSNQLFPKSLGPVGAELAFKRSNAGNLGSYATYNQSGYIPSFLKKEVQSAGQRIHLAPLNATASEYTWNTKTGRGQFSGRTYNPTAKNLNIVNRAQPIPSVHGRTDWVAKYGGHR
To be noted: NEW KINOMEscan.

For experiment [5], the target named is kinases (KINOMEscan panel) (Homo sapiens, UniProt Q86Z02). To be noted: HIPK1; NEW KINOMEscan.
kinases (KINOMEscan panel) (Homo sapiens, UniProt Q86Z02), sequence (Q86Z02 whole entry): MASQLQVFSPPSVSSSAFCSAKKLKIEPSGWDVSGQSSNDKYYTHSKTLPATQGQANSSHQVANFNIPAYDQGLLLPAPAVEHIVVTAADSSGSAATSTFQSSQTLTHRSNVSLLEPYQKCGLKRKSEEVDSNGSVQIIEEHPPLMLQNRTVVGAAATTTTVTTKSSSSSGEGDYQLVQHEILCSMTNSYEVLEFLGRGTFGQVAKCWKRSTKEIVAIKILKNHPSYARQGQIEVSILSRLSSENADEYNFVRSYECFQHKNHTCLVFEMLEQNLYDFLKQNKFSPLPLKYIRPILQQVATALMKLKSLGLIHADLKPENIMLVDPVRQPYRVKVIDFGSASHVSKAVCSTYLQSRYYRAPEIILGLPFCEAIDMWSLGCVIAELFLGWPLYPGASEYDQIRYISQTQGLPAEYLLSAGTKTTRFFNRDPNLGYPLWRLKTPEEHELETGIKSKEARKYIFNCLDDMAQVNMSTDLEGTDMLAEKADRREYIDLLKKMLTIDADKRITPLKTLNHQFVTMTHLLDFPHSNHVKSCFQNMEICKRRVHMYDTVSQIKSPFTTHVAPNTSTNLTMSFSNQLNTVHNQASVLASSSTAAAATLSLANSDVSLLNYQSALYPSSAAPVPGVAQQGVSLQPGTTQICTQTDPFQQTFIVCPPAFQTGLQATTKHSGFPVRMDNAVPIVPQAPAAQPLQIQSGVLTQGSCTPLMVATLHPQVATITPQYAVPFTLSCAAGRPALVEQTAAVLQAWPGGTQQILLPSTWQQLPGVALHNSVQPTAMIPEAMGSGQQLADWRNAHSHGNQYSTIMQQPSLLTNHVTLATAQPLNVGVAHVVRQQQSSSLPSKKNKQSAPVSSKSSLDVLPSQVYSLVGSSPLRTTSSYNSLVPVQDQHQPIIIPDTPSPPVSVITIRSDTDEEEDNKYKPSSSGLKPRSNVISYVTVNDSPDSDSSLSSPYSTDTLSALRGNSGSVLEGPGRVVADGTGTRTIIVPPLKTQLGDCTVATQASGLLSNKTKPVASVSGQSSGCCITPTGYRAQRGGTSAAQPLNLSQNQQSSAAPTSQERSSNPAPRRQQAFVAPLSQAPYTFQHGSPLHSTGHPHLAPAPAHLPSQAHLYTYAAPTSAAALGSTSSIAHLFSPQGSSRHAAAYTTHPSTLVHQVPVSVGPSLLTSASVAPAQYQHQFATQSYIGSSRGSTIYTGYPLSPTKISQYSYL
Experiment [6] concerns the target kinases (KINOMEscan panel) (Homo sapiens, UniProt P00519, E255K). The following applies: NEW KINOMEscan.

kinases (KINOMEscan panel) (Homo sapiens, UniProt P00519, E255K), sequence (P00519 whole entry E255K): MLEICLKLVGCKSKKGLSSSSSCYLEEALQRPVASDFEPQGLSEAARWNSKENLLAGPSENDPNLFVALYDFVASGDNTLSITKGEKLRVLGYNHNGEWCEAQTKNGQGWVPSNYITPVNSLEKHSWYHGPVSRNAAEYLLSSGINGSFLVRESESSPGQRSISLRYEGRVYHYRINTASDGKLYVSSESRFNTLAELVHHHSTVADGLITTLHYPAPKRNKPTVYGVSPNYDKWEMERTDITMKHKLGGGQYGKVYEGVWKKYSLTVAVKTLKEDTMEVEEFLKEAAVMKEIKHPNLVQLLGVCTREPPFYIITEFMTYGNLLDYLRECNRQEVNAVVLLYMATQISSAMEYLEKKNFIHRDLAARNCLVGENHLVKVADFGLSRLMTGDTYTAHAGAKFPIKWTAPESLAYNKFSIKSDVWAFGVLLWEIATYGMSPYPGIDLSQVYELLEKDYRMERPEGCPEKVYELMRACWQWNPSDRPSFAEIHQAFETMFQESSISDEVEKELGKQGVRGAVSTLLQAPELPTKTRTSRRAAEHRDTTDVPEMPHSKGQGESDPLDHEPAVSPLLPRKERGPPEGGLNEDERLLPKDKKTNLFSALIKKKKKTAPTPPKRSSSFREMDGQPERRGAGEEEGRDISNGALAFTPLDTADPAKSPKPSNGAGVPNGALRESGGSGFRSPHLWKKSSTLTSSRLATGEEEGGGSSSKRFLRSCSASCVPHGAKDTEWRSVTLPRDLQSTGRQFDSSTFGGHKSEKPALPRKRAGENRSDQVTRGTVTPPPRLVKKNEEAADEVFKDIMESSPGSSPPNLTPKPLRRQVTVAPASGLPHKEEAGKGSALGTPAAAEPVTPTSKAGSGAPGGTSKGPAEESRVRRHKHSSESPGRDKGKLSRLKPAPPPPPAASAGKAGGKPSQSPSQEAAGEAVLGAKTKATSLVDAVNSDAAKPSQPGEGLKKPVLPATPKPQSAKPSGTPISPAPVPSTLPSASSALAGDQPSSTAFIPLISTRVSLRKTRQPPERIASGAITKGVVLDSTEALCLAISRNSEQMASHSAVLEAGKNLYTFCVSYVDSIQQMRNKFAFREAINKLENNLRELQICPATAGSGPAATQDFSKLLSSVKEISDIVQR

Turning to `Cc1cccc(-c2nc(N(C)c3ccc4ncsc4c3)c3ccccc3n2)n1` [NK-161], the “KINOMEscan HUNK” value in experiment [1] is given as 4. The “KINOMEscan TRPM6” value in experiment [2] is given as 0. Moreover, the “KINOMEscan TAOK1” value in experiment [3] is recorded as 1. Moreover, the “KINOMEscan MAK or ALPK3” value in experiment [4] is 5. In experiment [5], the “KINOMEscan HIPK1” value is 5. The “KINOMEscan ABL1(E255K)-phosphorylated” value in experiment [6] came to 22.

`Cc1cccc(-c2nc(Nc3ccc4nn(C)cc4c3)c3ccccc3n2)n1` [NK167]: the “KINOMEscan HUNK” value in experiment [1] came out at 0. Further, the “KINOMEscan TRPM6” value in experiment [2] is reported as 0. For the same molecule, in experiment [3], the “KINOMEscan TAOK1” value turned out to be 0. The “KINOMEscan MAK or ALPK3” value in experiment [4] was 0. Besides, the “KINOMEscan HIPK1” value in experiment [5] is 27. Moreover, the “KINOMEscan ABL1(E255K)-phosphorylated” value in experiment [6] is on record as 15.
